According to patent US11179348B2, “Combination comprising pterostilbene for the treatment of cancer” (FUNDACIÓN UNIVERSIDAD CATÓLICA DE VALENCIA SAN VICENTE …, priority 2015, dated 2021):
Marks after values point to notes of the source that are not given here.

How the values were obtained:
human breast cancer = conditions: 20 μM Pter, 24 h, in vitro; cited from earlier work
[1] = Hematology, clinical chemistry and urinary balance in tumor-bearing mice treated with Pter; format: in vivo; conditions: Pter 30 mg/kg i.v.
MelJuso melanoma = test: In vivo growth of MelJuso melanoma xenografts in nu/nu mice; parameters: species or system human

In the case of `COc1cc(/C=C/c2ccc(O)cc2)cc(OC)c1` [Pter, trans-3,5-dimethoxy-4′-hydroxystilbene], the “decrease in tumor cell viability” value (human breast cancer) is given as ~25%, the “% CD3” value ([1]; A2058-bearing mice, day 35) is given as 1.2 ± 0.2% and the Alanine aminotransferase ([1]; A2058-bearing mice, day 35) is given as 7.0 ± 1.6 IU/L. For the same compound, the Albumin ([1]; A2058-bearing mice, day 35) was 2.9 ± 0.6 g/dL, the Alkaline phosphatase ([1]; A2058-bearing mice, day 35) was 140 ± 21 IU/L and the Aspartate aminotransferase ([1]; A2058-bearing mice, day 35) was 140 ± 27 IU/L. For the same compound, the B cells ([1]; A2058-bearing mice, day 35) was 63.4 ± 7.7, the Basophils ([1]; A2058-bearing mice, day 35) was 0.0 ± 0.0 10^3/μL and the CD4 ([1]; A2058-bearing mice, day 35) was 0.9 ± 0.1. The CD8 ([1]; A2058-bearing mice, day 35) was 0.4 ± 0.05, the Chloride ([1]; A2058-bearing mice, day 35) was 99 ± 10 mEq/L and the Creatinine ([1]; A2058-bearing mice, day 35) was 0.5 ± 0.1 mg/dL. The Direct bilirubin ([1]; A2058-bearing mice, day 35) was 0.1 ± 0.03 mg/dL, the Eosinophils ([1]; A2058-bearing mice, day 35) was 0.05 ± 0.02 10^3/μL and the Erythrocytes ([1]; A2058-bearing mice, day 35) was 7.0 ± 0.2^† 10^6/μL. The GGT ([1]; A2058-bearing mice, day 35) was 2.0 ± 0.5 IU/L, the Glucose ([1]; A2058-bearing mice, day 35) was 157 ± 19 mg/dL and the Hematocrit ([1]; A2058-bearing mice, day 35) was 34.4 ± 3.0%. For the same compound, the Hemoglobin ([1]; A2058-bearing mice, day 35) was 12.1 ± 0.4 g/dL, the “Isolated CD2^+ lymphocytes: Cell volume” value ([1]; A2058-bearing mice, day 35) was 164 ± 15 μm^3 and the “Isolated CD2^+ lymphocytes: GSH” value ([1]; A2058-bearing mice, day 35) was 4.3 ± 0.5 nmol/10^6 cells. For the same compound, the “Isolated CD2^+ lymphocytes: Glucose utilization” value ([1]; A2058-bearing mice, day 35) was 1.24 ± 0.08 µmol/g/min, the “Isolated CD2^+ lymphocytes: Glutamine utilization” value ([1]; A2058-bearing mice, day 35) was 3.35 ± 0.32 µmol/g/min and the “Isolated hepatocytes: Cell volume” value ([1]; A2058-bearing mice, day 35) was 2.9 ± 0.2 μL/mg dry wt. For the same compound, the “Isolated hepatocytes: GSH” value ([1]; A2058-bearing mice, day 35) was 4760 ± 377 nmol/g of cells, the “Isolated hepatocytes: Glucose utilization” value ([1]; A2058-bearing mice, day 35) was 1.57 ± 0.12 µmol/g/min and the Lactate dehydrogenase ([1]; A2058-bearing mice, day 35) was 251 ± 38 IU/L. The Leukocytes ([1]; A2058-bearing mice, day 35) was 2.2 ± 0.4 10^3/μL, the Lymphocytes ([1]; A2058-bearing mice, day 35) was 1.3 ± 0.2 10^3/μL and the Monocytes ([1]; A2058-bearing mice, day 35) was 0.04 ± 0.02* 10^3/μL. The NK ([1]; A2058-bearing mice, day 35) was 4.1 ± 1.5, the Neutrophils ([1]; A2058-bearing mice, day 35) was 0.8 ± 0.2 10^3/μL and the Plasma osmolality ([1]; A2058-bearing mice, day 35) was 278 ± 15 mOsm/kg. For the same compound, the Platelets ([1]; A2058-bearing mice, day 35) was 393 ± 36 10^3/μL, the Potassium ([1]; A2058-bearing mice, day 35) was 7.7 ± 1.6 mEq/L and the Sodium ([1]; A2058-bearing mice, day 35) was 152 ± 20 mEq/L. The Total bilirubin ([1]; A2058-bearing mice, day 35) was 0.5 ± 0.1 mg/dL, the Total protein ([1]; A2058-bearing mice, day 35) was 3.9 ± 0.5 g/dL and the Urea ([1]; A2058-bearing mice, day 35) was 50.4 ± 3.1 mg/dL. For the same compound, the Uric acid ([1]; A2058-bearing mice, day 35) was 1.8 ± 0.4 mg/dL, the “Urinary balance: Bilirubin” value ([1]; A2058-bearing mice, day 35) was “Negative” and the “Urinary balance: Erythrocytes” value ([1]; A2058-bearing mice, day 35) was “Negative”. For the same compound, the “Urinary balance: GFR” value ([1]; A2058-bearing mice, day 35) was 167 ± 30 µL/min, the “Urinary balance: Glucose” value ([1]; A2058-bearing mice, day 35) was “Normal” and the “Urinary balance: Ketones” value ([1]; A2058-bearing mice, day 35) was “Negative”. The “Urinary balance: Leukocytes” value ([1]; A2058-bearing mice, day 35) was “Negative”, the “Urinary balance: Nitrite” value ([1]; A2058-bearing mice, day 35) was “Negative” and the “Urinary balance: Protein” value ([1]; A2058-bearing mice, day 35) was 0.2 g/L. For the same compound, the “Urinary balance: Urobilinogen” value ([1]; A2058-bearing mice, day 35) was “Normal”, the “Urinary balance: pH” value ([1]; A2058-bearing mice, day 35) was 7.7 ± 0.5 and the “% CD3” value ([1]; AsPC-1-bearing mice, day 28) was 0.9 ± 0.3%. The Alanine aminotransferase ([1]; AsPC-1-bearing mice, day 28) was 13.2 ± 3.5 IU/L, the Albumin ([1]; AsPC-1-bearing mice, day 28) was 3.0 ± 0.6 g/dL and the Alkaline phosphatase ([1]; AsPC-1-bearing mice, day 28) was 147 ± 18 IU/L. The Aspartate aminotransferase ([1]; AsPC-1-bearing mice, day 28) was 166 ± 27 IU/L, the B cells ([1]; AsPC-1-bearing mice, day 28) was 71.4 ± 11.4 and the Basophils ([1]; AsPC-1-bearing mice, day 28) was 0.0 ± 0.0 10^3/μL. For the same compound, the CD4 ([1]; AsPC-1-bearing mice, day 28) was 0.8 ± 0.1, the CD8 ([1]; AsPC-1-bearing mice, day 28) was 0.2 ± 0.1 and the Chloride ([1]; AsPC-1-bearing mice, day 28) was 106 ± 9 mEq/L. For the same compound, the Creatinine ([1]; AsPC-1-bearing mice, day 28) was 0.5 ± 0.1 mg/dL, the Direct bilirubin ([1]; AsPC-1-bearing mice, day 28) was 0.1 ± 0.03 mg/dL and the Eosinophils ([1]; AsPC-1-bearing mice, day 28) was 0.04 ± 0.02 10^3/μL. The Erythrocytes ([1]; AsPC-1-bearing mice, day 28) was 6.2 ± 0.1^† 10^6/μL, the GGT ([1]; AsPC-1-bearing mice, day 28) was 2.3 ± 0.4 IU/L and the Glucose ([1]; AsPC-1-bearing mice, day 28) was 136 ± 20 mg/dL. For the same compound, the Hematocrit ([1]; AsPC-1-bearing mice, day 28) was 30.1 ± 1.5 %, the Hemoglobin ([1]; AsPC-1-bearing mice, day 28) was 12.0 ± 0.3 g/dL and the “Isolated CD2^+ lymphocytes: Cell volume” value ([1]; AsPC-1-bearing mice, day 28) was 177 ± 14 μm^3. For the same compound, the “Isolated CD2^+ lymphocytes: GSH” value ([1]; AsPC-1-bearing mice, day 28) was 4.2 ± 0.6 nmol/10^6 cells, the “Isolated CD2^+ lymphocytes: Glucose utilization” value ([1]; AsPC-1-bearing mice, day 28) was 1.23 ± 0.15 µmol/g/min and the “Isolated CD2^+ lymphocytes: Glutamine utilization” value ([1]; AsPC-1-bearing mice, day 28) was 3.40 ± 0.12 µmol/g/min. The “Isolated hepatocytes: Cell volume” value ([1]; AsPC-1-bearing mice, day 28) was 3.0 ± 0.3 μL/mg dry wt, the “Isolated hepatocytes: GSH” value ([1]; AsPC-1-bearing mice, day 28) was 4420 ± 444 nmol/g of cells and the “Isolated hepatocytes: Glucose utilization” value ([1]; AsPC-1-bearing mice, day 28) was 1.50 ± 0.13 µmol/g/min. The Lactate dehydrogenase ([1]; AsPC-1-bearing mice, day 28) was 288 ± 30 IU/L, the Leukocytes ([1]; AsPC-1-bearing mice, day 28) was 1.9 ± 0.3* 10^3/μL and the Lymphocytes ([1]; AsPC-1-bearing mice, day 28) was 1.1 ± 0.2 10^3/μL. The Monocytes ([1]; AsPC-1-bearing mice, day 28) was 0.05 ± 0.02 10^3/μL, the NK ([1]; AsPC-1-bearing mice, day 28) was 2.7 ± 1.1 and the Neutrophils ([1]; AsPC-1-bearing mice, day 28) was 0.6 ± 0.2^† 10^3/μL. For the same compound, the Plasma osmolality ([1]; AsPC-1-bearing mice, day 28) was 278 ± 16 mOsm/kg, the Platelets ([1]; AsPC-1-bearing mice, day 28) was 312 ± 55^† 10^3/μL and the Potassium ([1]; AsPC-1-bearing mice, day 28) was 8.9 ± 1.7 mEq/L. The Sodium ([1]; AsPC-1-bearing mice, day 28) was 149 ± 14 mEq/L, the Total bilirubin ([1]; AsPC-1-bearing mice, day 28) was 0.5 ± 0.1 mg/dL and the Total protein ([1]; AsPC-1-bearing mice, day 28) was 3.5 ± 0.5 g/dL. The Urea ([1]; AsPC-1-bearing mice, day 28) was 52.4 ± 5.7 mg/dL, the Uric acid ([1]; AsPC-1-bearing mice, day 28) was 1.6 ± 0.3 mg/dL and the “Urinary balance: Bilirubin” value ([1]; AsPC-1-bearing mice, day 28) was “Negative”. For the same compound, the “Urinary balance: Erythrocytes” value ([1]; AsPC-1-bearing mice, day 28) was “Negative”, the “Urinary balance: GFR” value ([1]; AsPC-1-bearing mice, day 28) was 186 ± 17 µL/min and the “Urinary balance: Glucose” value ([1]; AsPC-1-bearing mice, day 28) was “Normal”. The “Urinary balance: Ketones” value ([1]; AsPC-1-bearing mice, day 28) was “Negative”, the “Urinary balance: Leukocytes” value ([1]; AsPC-1-bearing mice, day 28) was “Negative” and the “Urinary balance: Nitrite” value ([1]; AsPC-1-bearing mice, day 28) was “Negative”. For the same compound, the “Urinary balance: Protein” value ([1]; AsPC-1-bearing mice, day 28) was 0.3 g/L, the “Urinary balance: Urobilinogen” value ([1]; AsPC-1-bearing mice, day 28) was “Normal” and the “Urinary balance: pH” value ([1]; AsPC-1-bearing mice, day 28) was 7.7 ± 0.4. The “inhibition of tumor growth” value (MelJuso melanoma; MelJuso, day 42, 30 mg Pter/kg i.v. every 48 h, vs controls) was ~49% and the Tumor vol. (MelJuso melanoma; MelJuso-RFP, 35 days after inoculation, Pter 30 mg/kg i.v. every 48 h and/or CRC infusion 0.3 μg/h) was 145 ± 35* mm^3.
